Key:
IRAK4 [1] = biological target: T1, IRAK4 (Homo sapiens, UniProt Q9NWZ3); experiment: IRAK4 PhosphoSens Biochemical Assay (BIOCHEM); settings: IRAK4 1 nM; ATP and Sox conjugated peptide substrate AQT0326; pH 7.5; room temperature; 240 minutes
T1 sequence (Q9NWZ3 1-460): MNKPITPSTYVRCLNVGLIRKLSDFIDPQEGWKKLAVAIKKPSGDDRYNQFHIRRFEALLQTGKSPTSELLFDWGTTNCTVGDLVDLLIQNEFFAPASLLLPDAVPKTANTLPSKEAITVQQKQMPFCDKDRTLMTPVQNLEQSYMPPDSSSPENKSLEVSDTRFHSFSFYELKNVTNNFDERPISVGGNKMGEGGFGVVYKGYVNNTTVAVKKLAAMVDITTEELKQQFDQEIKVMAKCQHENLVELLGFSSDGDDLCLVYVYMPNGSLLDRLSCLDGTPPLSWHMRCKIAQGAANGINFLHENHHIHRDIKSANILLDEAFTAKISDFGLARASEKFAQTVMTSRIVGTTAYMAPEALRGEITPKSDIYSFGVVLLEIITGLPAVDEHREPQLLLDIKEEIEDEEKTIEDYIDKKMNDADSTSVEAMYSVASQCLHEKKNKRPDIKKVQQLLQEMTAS
Description: The PhosphoSens® biochemical assay was performed as described by the vendor (AssayQuant Technologies Inc. Marlborough, MA). A 1.25× stock solution of IRAK4 (PV4002, ThermoFisher Scientific, Waltham, MA) and a 5× stock solution of ATP and Sox conjugated peptide substrate, AQT0326 (CSKS-AQT0326B, AssayQuant Technologies), were prepared in 1× kinase reaction buffer consisting of 50 mM HEPES, pH 7.5, 0.01% Brij-35, 0.5 mM EGTA, 20 mM MgCl2 and 1 mM DTT. 10 μL of the ATP and substrate solution mix, for a final concentration of 200 µM ATP and […] peptide substrate, was added to a Corning 3574 384-well, white, non-binding surface microtiter plate containing 0.5 μL of serially diluted test compounds prepared in DMSO. The reactions were started with the addition of 40 μL of the enzyme solution, for a final IRAK4 concentration of 1 nM, and monitored every 71 seconds for 240 minutes at λEX 360/λEM 485 in a BioTek Synergy H4 plate reader (Agilent Technologies, Santa Clara, CA) at room temperature. The initial linear portions of the progress curves were fit according to a linear equation to yield the slopes and converted to % inhibition based on a value of 100% activity for the no inhibitor treated control. IC50 values of each compound were obtained by fitting the % inhibition-compound concentration curves using Dotmatics software (Dotmatics, Bishops Stortford, Hertfordshire, England),

IRAK4 [2] = biological target: T1, IRAK4; experiment: ALE THP1 HTRF (IRAK4 HTRF in THP1 cell lysate, Cisbio HTRF kit); type: cell-based; parameters: THP1 Homogeneous Time Resolved Fluorescence (ALE THP1 HTRF) Procedure; endogenous in cells; host or cells: THP1; settings: anti-IRAK4 d2 / anti-IRAK4 k antibodies
Description: Cell culture media was prepared in a tissue culture hood in a sterile environment by adding 10% FBS and 1% Penicillin Streptomycin to 500 mL no phenol red RPMI 1640 media. The media was filtered through a Nalgene Bottle Top Filter and stored at 4° C.
For Homogenous Time Resolved Fluorescence (HTRF) assays, a Cisbio HTRF kit was used, which included: Lysis Buffer #1 4×, Blocking Reagent #3 100×, 20× Antibody 1 (Anti-IRAK4 d2), 20× Antibody 2 (Anti-IRAK4 k), and Detection Buffer.
4× Lysis Buffer was stored at 4° C. For use as 1× Lysis buffer, the 4× solution was diluted with de-ionized water (distilled water, Gibco Cat. #15230279) and 100× Blocking Reagent in a 1:3:0.04 volume ratio.
20× Antibody Solution aliquots were stored at −80° C. and the Detection Buffer was stored at 4° C. For use as a 1× Antibody Solution, the 20× Antibody Solution aliquot was diluted with Detection Buffer in a 1:19 volume ratio.
Cells were lysed at room temperature for 45 min with shaking. A BCA protein assay was performed and normalization was conducted to the desired total protein concentration with 1× lysis buffer. Next, 1× Antibody Solutions were prepared by adding 380 μL Detection Buffer to 20 μL 20× Antibody Solution aliquots and mixing well. 1× Antibody Solutions were combined 1:1 and briefly vortexed. For control wells, 20 μL 1× anti IRAK4-k Antibody Solution was saved. The 384-well plate (ProxiPlate-384 Plus, Perkin Elmer Cat. #6008289) was loaded by adding 4 μL of the mixed Antibody Solution to empty wells using a single channel repeater. Using a multi-channel repeater, 16 μL lysate was added per well, and any bubbles that were formed were popped with 20 μL pipette tips and Kimwipe edges. In column 10, triplicates of each control were prepared. In wells A10, B10, and C10, buffer control was prepared by adding 16 μL Lysis Buffer and 4 μL Detection Buffer. In wells D10, E10, and F10, cryptate control was prepared by adding 16 μL Lysis Buffer, 2 μL Detection Buffer, and 2 μL 1× anti-IRAK4-k Antibody Solution. In wells G10, H10, and 110, a negative control was prepared by adding 16 μL Lysis Buffer and 4 μL mixed Antibody Solution. The plate was sealed with a clear seal and covered with an aluminum lid. The plate was spun down at 800 g for 5 min and incubated in the dark at room temperature overnight. The next day, the plate was spun down at 800 g for 5 min. The samples were analyzed by a plate reader (Envision, PerkinElmer) using the Desnor 384 HTRF program.

IC50 (IRAK4 [1]): < 0.5 nM
EC50 (IRAK4 [2]): 6 nM
ALE THP1 HTRF YMIN (IRAK4 [2]; YMIN): 10%
Structure (SMILES): N[C@@H]1C[C@@H](F)CN(c2ccn3ncc(C(=O)Nc4cn(C5CCN(CCN6CCN(c7ccc8c(c7)CN(C7CCC(=O)NC7=O)C8=O)CC6)CC5)nc4C(F)F)c3n2)C1 (stereo partly drawn) [Compound P-38, N-[3-(difluoromethyl)-1-[1-[2-[4-[2-(2,6-dioxo-3-piperidyl)-1-oxo-isoindolin-5-yl]piperazin-1-yl]ethyl]-4-piperidyl]pyrazol-4-yl]-5-[(3R,5R)-3-amino-5-fluoro-1-piperidyl]pyrazolo[1,5-a]pyrimidine-3-carboxamide]

— patent US20260327233A1, “Heteroaryl Compounds as Ligand Directed Degraders of IRAK4” (Celgene Corporation, priority 2023, published 2026)
